Results: ChEMBL document CHEMBL1671849, “Novel, Broad Spectrum Anti-Cancer Agents Containing the Tricyclic 5:7:5-Fused Diimidazodiazepine Ring System” (ACS Med Chem Lett, 2011)

Legend:
[1] = tested on: OVCAR-3; test: Cytotoxicity against human OVCAR3 cells after 72 hrs by WST1 assay; assay type: functional, cell-based; settings: OVCAR-3, 72 h
[2] = tested on: MDA-MB-231; test: Cytotoxicity against human MDA-MB-231 cells after 72 hrs by WST1 assay; assay type: functional, cell-based; settings: MDA-MB-231, 72 h
[3] = tested on: NCI-H460; test: Cytotoxicity against human H460 cells after 72 hrs by WST1 assay; assay type: functional, cell-based; settings: NCI-H460, 72 h
[4] = tested on: A549; test: Cytotoxicity against human A549 cells after 72 hrs by WST1 assay; assay type: functional, cell-based; settings: A549, 72 h
[5] = tested on: MCF7; test: Cytotoxicity against human MCF7 cells after 72 hrs by WST1 assay; assay type: functional, cell-based; settings: MCF7, 72 h
[6] = tested on: PC-3; test: Cytotoxicity against human PC3 cells after 72 hrs by WST1 assay; assay type: functional, cell-based; settings: PC-3, 72 h
[7] = tested on: MCF7; test: Cell cycle arrest in human MCF7 cells assessed as accumulation at G2/M phase at 3 uM after 24 hrs by flow cytometry relative to control; assay type: functional
[8] = tested on: Mus musculus; test: Toxicity in SCID mouse assessed as histopathological examination of cerebellum-brain at up to 500 mg/kg administered twice week for 7 weeks; assay type: organism-based; design: dose 500 mg/kg; settings: in vivo, 1176 h
[9] = tested on: Mus musculus; test: Toxicity in SCID mouse at up to 500 mg/kg administered twice week for 7 weeks; assay type: organism-based; design: dose 500 mg/kg; settings: in vivo, 1176 h
[10] = tested on: MCF7; test: Cell cycle arrest in human MCF7 cells assessed as accumulation at S phase at 3 uM after 24 hrs by flow cytometry relative to control; assay type: functional
[11] = tested on: Mus musculus; test: Toxicity in SCID mouse assessed as histopathological examination of liver at up to 500 mg/kg administered twice week for 7 weeks; assay type: organism-based; design: dose 500 mg/kg; settings: in vivo, 1176 h
[12] = tested on: Mus musculus; test: Toxicity in SCID mouse assessed as histopathological examination of spleen at up to 500 mg/kg administered twice week for 7 weeks; assay type: organism-based; design: dose 500 mg/kg; settings: in vivo, 1176 h
[13] = tested on: MCF7; test: Cell cycle arrest in human MCF7 cells assessed as accumulation at G1 phase at 3 uM after 24 hrs by flow cytometry relative to control; assay type: functional
[14] = tested on: Mus musculus; test: Toxicity in SCID mouse assessed as blood analysis at up to 500 mg/kg administered twice week for 7 weeks; assay type: organism-based; design: dose 500 mg/kg; settings: in vivo, 1176 h
[15] = tested on: Mus musculus; test: Toxicity in SCID mouse assessed as histopathological examination of kidney at up to 500 mg/kg administered twice week for 7 weeks; assay type: organism-based; design: dose 500 mg/kg; settings: in vivo, 1176 h

| SMILES | IC50 [1] [µM] | IC50 [2] [nM] | IC50 [3] [nM] | IC50 [4] [nM] | IC50 [5] [µM] | IC50 [6] [µM] | Activity [7] [%] | Activity [8] | Activity [9] | Activity [10] [%] | Activity [11] | Activity [12] | Activity [13] [%] | Activity [14] | Activity [15] |
| --- | --- | --- | --- | --- | --- | --- | --- | --- | --- | --- | --- | --- | --- | --- | --- |
| COc1ccc(Cn2cnc3c4nc(=O)n(Cc5cccc(OC)c5)c-4ncnc32)cc1 | 5.1 | 2600 | 1600 | 1500 | 6 | 2.5 | – | – | – | – | – | – | – | – | – |
| COc1ccc(Cn2c3nc(-c4ccc([N+](=O)[O-])cc4)nc4c(ncn4Cc4ccc(OC)cc4)c-3nc2=O)cc1 | 5.2 | 3300 | 2500 | 2700 | 5.7 | 4.3 | – | – | – | – | – | – | – | – | – |
| COc1ccc(Cn2c3ncnc4c(ncn4Cc4ccc(OC)cc4)c-3nc2=O)cc1 | 14.5 | 4010 | 2800 | 2500 | 7.5 | 4.8 | 14.5 | Non-toxic | Non-toxic | 5.87 | Non-toxic | Non-toxic | 79.15 | Non-toxic | Non-toxic |
| COc1ccc(Cn2cnc3c4nc(=O)n(Cc5ccccc5)c-4ncnc32)cc1 | 5 | 2300 | 1800 | 1700 | 7 | 4.05 | – | – | – | – | – | – | – | – | – |
| COc1ccc(Cn2cnc3c4nc(=O)n(Cc5ccc(F)cc5)c-4ncnc32)cc1 | 9 | 2500 | 1500 | 1600 | 4 | 2.1 | – | – | – | – | – | – | – | – | – |
